Measurements from patent US20210380595A1 (ARAXES PHARMA LLC, priority 2018, published 2021).

Target: T1, KRAS G12C 1-169, his-tagged protein, GDP-loaded (Homo sapiens, UniProt P01116, G12C)
T1 construct: KRAS G12C 1-169, his-tagged protein, GDP-loaded
Test: Biochemical assay: covalent modification of KRAS G12C measured by mass spectrometry (RapidFire/TOF or Q-Exactive); also: time not given here
Format: binding
Outline: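 GDP-loaded KRAS G12C 1-169 (his-tagged, 2 μM or 0.5 μM in 20 mM Hepes, 150 mM NaCl, 1 mM MgCl2) reacted with compound at 32 μM or 8 μM final, then quenched with formic acid. Intact-protein LC-MS (RapidFire/TOF or Q-Exactive) with charge-envelope deconvolution; % modification from modified vs unmodified peak intensities.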

[1] = tested at a concentration of 8 μM

| SMILES | Bind % (tested at 32 μM) | Bind % [1] |
| --- | --- | --- |
| C=CC(=O)N1CC2(CCN(c3ccc(OCCCN(C)C)c(-c4c(C)ccc5[nH]ncc45)c3C#N)C2)C1 [Compound I-57, 6-(2-acryloyl-2,6-diazaspiro[3.4]octan-6-yl)-3-(3-(dimethylamino)propoxy)-2-(5-methyl-1H-indazol-4-yl)benzonitrile] | + (+ indicates binding activity greater than 0% and up to 50%) |  |
| C=CC(=O)N1CC2(CCN(c3cccc(-c4c(C)ccc5[nH]ncc45)c3C#N)C2)C1C(C)C (stereo not drawn) [Compound I-139, 2-(2-acryloyl-1-isopropyl-2,6-diazaspiro[3.4]octan-6-yl)-6-(5-methyl-1H-indazol-4-yl)benzonitrile] | + (+ indicates binding activity greater than 0% and up to 50%) |  |
| C=CC(=O)N1CC2(CCN(c3cc(OCc4ccccn4)cc(-c4c(C)ccc5[nH]ncc45)c3C#N)C2)C1 [Compound I-20, 2-(2-acryloyl-2,6-diazaspiro[3.4]octan-6-yl)-6-(5-methyl-1H-indazol-4-yl)-4-(pyridin-2-ylmethoxy) benzonitrile] | +++ (+++ indicates binding activity greater than 75%) |  |
| Cc1ccc2[nH]ncc2c1-c1cc(OCc2ccccn2)cc(N2CCC3(CN(C(=O)/C=C/CN(C)C)C3)C2)c1C#N [Compound I-60, (E)-2-(2-(4-(dimethylamino)but-2-enoyl)-2,6-diazaspiro[3.4]octan-6-yl)-6-(5-methyl-1H-indazol-4-yl)-4-(pyridin-2-ylmethoxy) benzonitrile] |  | + (+ indicates binding activity greater than 0% and up to 50%) |
| C=CC(=O)N1CCC2(CC1)CN(c1cc(OCc3ccccn3)cc(-c3c(C)ccc4[nH]ncc34)c1C#N)C2 [Compound I-65, 2-(7-acryloyl-2,7-diazaspiro[3.5]nonan-2-yl)-6-(5-methyl-1H-indazol-4-yl)-4-(pyridin-2-ylmethoxy) benzonitrile] | + (+ indicates binding activity greater than 0% and up to 50%) |  |
| C=CC(=O)N1CC2(CCN(c3cccc(-c4c(C)ccc5[nH]ncc45)c3C#N)CC2)C1 [Compound I-116, 2-(2-acryloyl-2,7-diazaspiro[3.5]nonan-7-yl)-6-(5-methyl-1H-indazol-4-yl)benzonitrile] | + (+ indicates binding activity greater than 0% and up to 50%) |  |
| C=CC(=O)N1CC2(CCN(c3cc(NCCc4ccccn4)c(F)c(-c4c(C)ccc5[nH]ncc45)c3C#N)CC2)C1 [Compound I-133, 6-(2-acryloyl-2,7-diazaspiro[3.5]nonan-7-yl)-3-fluoro-2-(5-methyl-1H-indazol-4-yl)-4-((2-(pyridin-2-yl)ethyl)amino) benzonitrile] | + (+ indicates binding activity greater than 0% and up to 50%) |  |
| C=CC(=O)N1CC2(CCN(c3cc(OCc4ccccn4)cc(-c4c(C)ccc5[nH]ncc45)c3C#N)CC2)C1 [Compound I-50, 2-(2-acryloyl-2,7-diazaspiro[3.5]nonan-7-yl)-6-(5-methyl-1H-indazol-4-yl)-4-(pyridin-2-ylmethoxy) benzonitrile] |  | + (+ indicates binding activity greater than 0% and up to 50%) |
| C=CC(=O)N1CC2(CCN(c3ccc(F)c(-c4c(C)ccc5cnn(C)c45)c3C#N)C2)C1 (atropisomer, axis not shown) [Compound I-45, (R)-6-(2-acryloyl-2,6-diazaspiro[3.4]octan-6-yl)-2-(1,6-dimethyl-1H-indazol-7-yl)-3-fluorobenzo-nitrile] |  | + (+ indicates binding activity greater than 0% and up to 50%) |
| C=CC(=O)N1CC2(CCN(c3cc(N4CCC(CN(C)C)CC4)c(F)c(-c4c(C)ccc5[nH]ncc45)c3C#N)CC2)C1 [Compound I-136, 6-(2-acryloyl-2,7-diazaspiro[3.5]nonan-7-yl)-4-(4-((dimethylamino)methyl)piperidin-1-yl)-3-fluoro-2-(5-methyl-1H-indazol-4-yl)benzonitrile] |  | + (+ indicates binding activity greater than 0% and up to 50%) |
| CC#CC(=O)N1CCC2(CC1)CN(c1cc(OCc3ccccn3)cc(-c3c(C)ccc4[nH]ncc34)c1C#N)C2 [Compound I-64, 2-(7-(but-2-ynoyl)-2,7-diazaspiro[3.5]nonan-2-yl)-6-(5-methyl-1H-indazol-4-yl)-4-(pyridin-2-ylmethoxy) benzonitrile] | + (+ indicates binding activity greater than 0% and up to 50%) |  |
| C=CC(=O)N1CCC2(CCN(c3ccc(F)c(-c4c(C)ccc5[nH]ncc45)c3C#N)CC2)C1 [Compound I-94, 6-(2-acryloyl-2,8-diazaspiro[4.5]decan-8-yl)-3-fluoro-2-(5-methyl-1H-indazol-4-yl)benzonitrile] | + (+ indicates binding activity greater than 0% and up to 50%) |  |
| C=CC(=O)N1CC2(CCN(c3cc(OCCCN(C)C)c(OC)c(-c4c(C)ccc5cnn(C)c45)c3C#N)CC2)C1 [Compound I-104] | + (+ indicates binding activity greater than 0% and up to 50%) |  |
| C=CC(=O)N1CC2(CCN(c3cc(OCCCN(C)C)c(F)c(-c4c(C)ccc5cnn(C)c45)c3C#N)CC2)C1 [Compound I-119, 6-(2-acryloyl-2,7-diazaspiro[3.5]nonan-7-yl)-2-(1,6-dimethyl-1H-indazol-7-yl)-4-(3-(dimethylamino)propoxy)-3-fluorobenzo-nitrile] | + (+ indicates binding activity greater than 0% and up to 50%) |  |
| C=CC(=O)N1CC2(CCN(c3cc(NCCN4CCCC4)c(F)c(-c4c(C)ccc5[nH]ncc45)c3C#N)CC2)C1 [Compound I-120, 6-(2-acryloyl-2,7-diazaspiro[3.5]nonan-7-yl)-3-fluoro-2-(5-methyl-1H-indazol-4-yl)-4-((2-(pyrrolidin-1-yl)ethyl)amino) benzonitrile] | + (+ indicates binding activity greater than 0% and up to 50%) |  |
| C=CC(=O)N1CC2(CCN(c3cc(N4CCOCC4)cc(-c4c(C)ccc5cnn(C)c45)c3C#N)C2)C1 [Compound I-16, 2-(2-acryloyl-2,6-diazaspiro[3.4]octan-6-yl)-6-(1,6-dimethyl-1H-indazol-7-yl)-4-morpholino-benzonitrile] | +++ (+++ indicates binding activity greater than 75%) |  |
| CC#CC(=O)N1CC2(CCN(c3cc(OCc4ccccn4)cc(-c4c(C)ccc5[nH]ncc45)c3C#N)CC2)C1 [Compound I-51, 2-(2-(but-2-ynoyl)-2,7-diazaspiro[3.5]nonan-7-yl)-6-(5-methyl-1H-indazol-4-yl)-4-(pyridin-2-ylmethoxy) benzonitrile] | + (+ indicates binding activity greater than 0% and up to 50%) |  |
| C=CC(=O)N1CC2(CCN(c3ccc(F)c(-c4c(C)ccc5[nH]ncc45)c3)CC2)C1 [Compound I-102, 1-(7-(4-fluoro-3-(5-methyl-1H-indazol-4-yl)phenyl)-2,7-diazaspiro[3.5]nonan-2-yl)prop-2-en-1-one] | + (+ indicates binding activity greater than 0% and up to 50%) |  |
| C=CC(=O)N1CC2(CCCN(c3cc(OCc4ccccn4)cc(-c4c(C)ccc5[nH]ncc45)c3C#N)C2)C1 [Compound I-78, 2-(2-acryloyl-2,6-diazaspiro[3.5]nonan-6-yl)-6-(5-methyl-1H-indazol-4-yl)-4-(pyridin-2-ylmethoxy) benzonitrile] | + (+ indicates binding activity greater than 0% and up to 50%) |  |
| C=CC(=O)N1CC2(CCN(c3cc(N4CCCC4)c(F)c(-c4c(C)ccc5[nH]ncc45)c3C#N)CC2)C1 [Compound I-121, 6-(2-acryloyl-2,7-diazaspiro[3.5]nonan-7-yl)-3-fluoro-2-(5-methyl-1H-indazol-4-yl)-4-(pyrrolidin-1-yl)benzonitrile] | + (+ indicates binding activity greater than 0% and up to 50%) |  |
| C=CC(=O)N1CC2(CCN(c3cc(N4CCCC(O)C4)cc(-c4c(C)ccc5[nH]nc(C)c45)c3C#N)C2)C1 (stereo not drawn) [Compound I-76, 2-(2-acryloyl-2,6-diazaspiro[3.4]octan-6-yl)-6-(3,5-dimethyl-1H-indazol-4-yl)-4-(3-hydroxypiperidin-1-yl)benzonitrile] |  | ++ (++ indicates binding activity from 50 to 75%) |
| C=CC(=O)N1CC2(CCN(c3cc(OCc4ccccn4)cc(-c4c(C)ccc5cnn(C)c45)c3C#N)C2)C1 [Compound I-28, 2-(2-acryloyl-2,6-diazaspiro[3.4]octan-6-yl)-6-(1,6-dimethyl-1H-indazol-7-yl)-4-(pyridin-2-ylmethoxy) benzonitrile] |  | +++ (+++ indicates binding activity greater than 75%) |
| C=CC(=O)N1CC2(C1)CN(c1ccc(F)c(-c3c(C)ccc4[nH]ncc34)c1C#N)C2 [Compound I-110, 6-(6-acryloyl-2,6-diazaspiro[3.3]heptan-2-yl)-3-fluoro-2-(5-methyl-1H-indazol-4-yl)benzonitrile] |  | + (+ indicates binding activity greater than 0% and up to 50%) |
| C=CC(=O)N1CC2(CCN(c3cc(OCCCN(C)C)cc(-c4c(C)ccc5[nH]ncc45)c3C#N)C2)C1 [Compound I-27, 2-(2-acryloyl-2,6-diazaspiro[3.4]octan-6-yl)-4-(3-(dimethylamino)propoxy)-6-(5-methyl-1H-indazol-4-yl)benzonitrile] |  | ++ (++ indicates binding activity from 50 to 75%) |
